Results from patent publication US7365225B2, “Aryl dicarboxamides” (Laboratoires Serono SA, priority 2003, dated 2008).

Assays:
Type in all cases: biochemical
SHP-2 = target: T1, SHP-2 (Homo sapiens, UniProt Q06124); assay: PTP Enzyme Assay (DiFMUP), SHP-2; settings: catalytic core of human recombinant PTP; 20 μM DiFMUP; 30 minutes at room temperature; read-out: IC50 value in respect of SHP-2
T1 construct: using the catalytic core of a human recombinant PTP as the enzyme; made in house
T1 sequence (Q06124 247-517 limits assumed): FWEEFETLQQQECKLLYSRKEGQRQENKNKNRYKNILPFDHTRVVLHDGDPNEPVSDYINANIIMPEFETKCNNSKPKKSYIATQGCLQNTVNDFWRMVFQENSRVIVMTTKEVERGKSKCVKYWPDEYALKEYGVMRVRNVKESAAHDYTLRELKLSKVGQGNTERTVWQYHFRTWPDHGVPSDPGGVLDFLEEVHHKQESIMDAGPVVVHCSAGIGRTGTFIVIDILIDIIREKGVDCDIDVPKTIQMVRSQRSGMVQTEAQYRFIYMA
Description: (§1) The PTP Enzyme Assay aims at determining the extent of inhibition of PTPs, e.g. of PTP1B, SHP-1, SHP-2, or GLEPP-1 in the presence of a test compound of formula (I). The inhibition is illustrated by IC50 values which denote the concentration of test compound necessary to achieve an inhibition of 50% of said PTP's using the following concentration of the PTP substrate DiFMUP: • 5 μM DiFMUP for PTP1B; • 20 μM DiFMUP for SHP-1 and SHP-2; • 30 μM DiFMUP for GLEPP-1. a) PTPs Cloning […]
(§2) Assays were performed in a 96 well plate format, using the catalytic core of a human recombinant PTP as the enzyme and 6,8-DiFluoro-4-MethylUmbelliferyl Phosphate (DiFMUP, Molecular Probes, D-6567) as a substrate. […] The reaction ran for 30 minutes at room temperature before reading the fluorescence intensity (integral or intensity) on a Perkin-Elmer Victor 2 spectrofluorimeter (excitation of 6,8-difluoro-7-hydroxy coumarin is at 355 nm, the emission at 460 nm, for 0.1 s). The percentage of inhibition is determined by measuring the relative fluorescence ion absence of a test compound (PTP inhibitor), i.e. with the solvent alone (5% DMSO). The IC50 values for inhibition were determined in triplicates.

PTP1B = target: T2, PTP1B (Homo sapiens, UniProt P18031); assay: PTP Enzyme Assay (DiFMUP), PTP1B; settings: catalytic core of human recombinant PTP; 5 μM DiFMUP; 30 minutes at room temperature; read-out: IC50 value in respect of PTP1B
T2 construct: using the catalytic core of a human recombinant PTP as the enzyme; made in house
T2 sequence (P18031 3-277 limits assumed): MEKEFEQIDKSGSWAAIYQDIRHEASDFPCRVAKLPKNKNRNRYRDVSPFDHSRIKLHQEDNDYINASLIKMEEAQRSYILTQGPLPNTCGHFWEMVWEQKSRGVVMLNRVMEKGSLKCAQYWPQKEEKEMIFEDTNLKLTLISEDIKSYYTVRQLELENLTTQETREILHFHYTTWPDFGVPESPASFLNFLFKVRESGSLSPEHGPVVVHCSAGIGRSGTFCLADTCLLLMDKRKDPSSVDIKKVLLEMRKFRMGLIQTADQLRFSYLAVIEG
Description: The PTP Enzyme Assay aims at determining the extent of inhibition of PTPs, e.g. of PTP1B, SHP-1, SHP-2, or GLEPP-1 in the presence of a test compound of formula (I). The inhibition is illustrated by IC50 values which denote the concentration of test compound necessary to achieve an inhibition of 50% of said PTP's using the following concentration of the PTP substrate DiFMUP: • 5 μM DiFMUP for PTP1B; • 20 μM DiFMUP for SHP-1 and SHP-2; • 30 μM DiFMUP for GLEPP-1. a) PTPs Cloning
The cloning and expression of the catalytic domain e.g. of PTP1B, may be performed as described in J. Biol. Chem. 2000, 275(13), pp 9792-9796. […]
as §2

GLEPP-1 = target: T3, GLEPP-1 (Homo sapiens, UniProt Q16827); assay: PTP Enzyme Assay (DiFMUP), GLEPP-1; settings: catalytic core of human recombinant PTP; 30 μM DiFMUP; 30 minutes at room temperature; read-out: IC50 value in respect of GLEPP-1
T3 construct: using the catalytic core of a human recombinant PTP as the enzyme; made in house
T3 sequence (Q16827 938-1195 limits assumed): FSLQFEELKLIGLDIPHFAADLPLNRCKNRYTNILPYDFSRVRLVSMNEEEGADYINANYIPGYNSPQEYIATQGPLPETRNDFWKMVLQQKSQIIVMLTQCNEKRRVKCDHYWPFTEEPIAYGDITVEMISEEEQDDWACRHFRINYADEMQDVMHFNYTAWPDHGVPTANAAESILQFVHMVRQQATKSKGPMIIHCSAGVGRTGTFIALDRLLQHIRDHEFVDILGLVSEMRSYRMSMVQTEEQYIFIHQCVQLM
Description: as §1, §2

SHP-1 = target: T4, SHP-1 (Homo sapiens, UniProt P29350); assay: PTP Enzyme Assay (DiFMUP), SHP-1; settings: catalytic core of human recombinant PTP; 20 μM DiFMUP; 30 minutes at room temperature; read-out: IC50 value in respect of SHP-1
T4 construct: using the catalytic core of a human recombinant PTP as the enzyme; made in house
T4 sequence (P29350 244-515 limits assumed): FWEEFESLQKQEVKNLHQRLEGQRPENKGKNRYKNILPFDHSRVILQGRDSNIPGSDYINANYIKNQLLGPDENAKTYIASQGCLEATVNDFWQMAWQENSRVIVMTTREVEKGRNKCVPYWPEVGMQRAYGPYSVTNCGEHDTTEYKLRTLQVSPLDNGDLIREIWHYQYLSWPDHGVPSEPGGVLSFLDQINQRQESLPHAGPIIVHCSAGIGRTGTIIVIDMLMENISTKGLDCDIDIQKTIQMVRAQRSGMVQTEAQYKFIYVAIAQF
Description: as §1, §2

Q: How did the IC50 (SHP-2) turn out when `O=C(NCc1ccc(Oc2ccccc2)cc1)c1ccc(CN(C(=O)CCC2CCCC2)c2ccc(O)c(C(=O)O)c2)cc1` [Example 1, 5-[(3-cyclopentylpropanoyl)(4-{[(4-phenoxybenzyl)amino]carbonyl}benzyl)amino]-2-hydroxybenzoic acid] was run?
A: Its IC50 is 1.9 µM.

Q: What about the IC50 (PTP1B) of the same compound?
A: The IC50 was 1 µM.

Q: And the IC50 (GLEPP-1)?
A: The IC50 was 1.2 µM.

Q: What about the IC50 (SHP-1) of the same compound?
A: The IC50 was 4 µM.
